{"source": "patent US8183292B2", "about": "“Chiral cyclic β-amino acids and their derivatives, pharmaceutical compositions containing them and the use of such compounds” (BioBlocks Magyarorszag Gyogyszerkemiai es Fejleszto Kft., priority 2006, dated 2012)", "key": {"P-glycoprotein": {"system": "P-glycoprotein", "assay": "Reversal of multidrug resistance: rhodamine 123 accumulation in human mdr1 transfected L5178 mouse T-cell lymphoma cells (flow cytometry)", "type": "cell-based", "details": "for Vrel = effect related to Verapamil: Verapamil at 10 μg/ml; for R (activity ratio, fluorescence) / R = ratio of fluorescence and activity: rhodamine 123", "protocol": "L5178 mouse T-cell lymphoma cells were transfected with pHa MDR1/A retrovirus, by the method as described by J. L. Weaver [J. L. Weaver, G. Szabó, P. S. Pine, M. M. Gottesmann, S. Goldenberg and A. Aszalos: The effect of ion channel blockers, immunosuppressive agents and other drugs on the activity of the multidrug transporter. Int. […] Mdr-1-expressing cell lines were selected by culturing the transfected cells with 60 ng/mL of colchicine to maintain the expression of the MDR phenotype. L5178 (parent) mouse T-cell lymphoma cells and the human mdr1 transfected subline were cultured in McCoy's 5A medium supplemented with 10% by mass of heath-inactivated horce serum, L-glutamine and antibiotics. Both cell lines were cultured at 37° C. The mouse lymphoma cell line was maintained in a 5% CO2 atmosphere.\nThe assays were carried out by the method as described by J. Molnár et al. [J. Molnár, I. Mucsi, J. Nacsa, A. Hevér, N. Gyémánt, K. Ugocsai, P. Hegyes, S. Kiessig, D. Gaal, H. Lage and A. Varga: New silicon compounds as resistance modifiers against multidrug-resistant cells. […] The cell density was set to a value of 2×10^6/mL, then the cells were resuspended in a serum-free McCoy's 5A medium and divided in aliquots of 0.5 mL in Eppendorf centrifuge tubes. The tested compounds were added in different concentrations to different volumes (2.0-20.0 μL) of 1.0-10.0 mg/mL stock solutions and the samples were incubated for 10 minutes at room temperature. […] The fluorescence of the cell population was measured with a Beckton Dickinson FACScan flow cytometer. […] The percentage value of the mean fluorescence intensity was calculated for the treated MDR and for the parental cell lines as compared with the values obtained with the untreated cells. The activity ratio (R) was calculated on the basis of the measured fluorescence values by the following equation: […]"}}, "data": [{"smiles": "CC(C)(C)OC(=O)N1C(=O)[C@H]2C[C@H]3C[C@@H]([C@H]21)C3(C)C", "note": "[Compound 11, (1R ,2R,5S,7R)-N-tert-Butoxycarbonyl-8,8-Dimethyl-3-Azatricyclo[5.1.1.0^2,5]-Nonan-4-One]", "values": [{"measurement": "melting point", "result": "64 to 66", "unit": "°C"}]}, {"smiles": "CC1(C)[C@H]2C[C@@H]3C(=O)N[C@@H]3[C@@H]1C2", "note": "[Compound 10, (1R,2R,5S,7R)-8,8-Dimethyl-3-Azatricyclo[5.1.1.0^2,5]Nonan-4-One]", "values": [{"measurement": "melting point", "result": "68 to 72", "unit": "°C"}]}, {"smiles": "CNC(=O)[C@H]1[C@@H](NC(=O)OC(C)(C)C)C[C@H]2C[C@H]1C2(C)C", "note": "[Compound 12, tert-Butyl (1R,2R,3S,5R)-(2-Methylaminocarbonyl-6,6-Dimethylbicyclo[3.1.1]-Hept-3-yl)Carbamate]", "values": [{"measurement": "melting point", "result": "104 to 105", "unit": "°C"}]}, {"smiles": "CCOC(=O)[C@H]1C[C@H]2C[C@@H]([C@H]1N(Cc1ccccc1)C(=O)Nc1ccc(Cl)cc1)C2(C)C", "note": "[Compound 48, (1R,2R,3S,5R)-1-Benzyl-1-(3-Ethoxycarbonyl-6,6-Dimethylbicyclo[3.1.1]Heptan-2-yl)-3-(4-Chlorophenyl)-Urea]", "values": [{"measurement": "melting point", "result": "202 to 205", "unit": "°C"}]}, {"smiles": "CCOC(=O)[C@@H]1C[C@@H]2C[C@H]([C@@H]1NC(=S)Nc1cccc(OC)c1)C2(C)C", "note": "[Compound 54, (1S,2S,3R,5S)-1-(3-Ethoxycarbonyl-6,6-Dimethylbicyclo[3.1.1]Heptan-2-yl) -3-(3-Methoxyphenyl)-Thiourea]", "values": [{"measurement": "Vrel = effect related to Verapamil", "setting": "P-glycoprotein; Table 2, 4 μg/ml", "result": 0.48}, {"measurement": "R (activity ratio, fluorescence)", "setting": "P-glycoprotein; Table 2, 4 μg/ml", "result": 2.37}, {"measurement": "Vrel = effect related to Verapamil", "setting": "P-glycoprotein; Table 2, 40 μg/ml", "result": 5.36}, {"measurement": "R (activity ratio, fluorescence)", "setting": "P-glycoprotein; Table 2, 40 μg/ml", "result": 26.35}]}, {"smiles": "COC(=O)N(C1c2ccccc2-c2ccccc21)[C@H]1[C@@H](C(=O)O)C[C@H]2C[C@@H]1C2(C)C", "note": "[Compound 18, (1R,2R,3S,5R)-2-(9H-Fluoren-9-yl-Methoxycarbonylamino)-6,6-Dimethylbicyclo[3.1.1]Heptan-3-Carboxylic Acid]", "values": [{"measurement": "melting point", "result": "160 to 162", "unit": "°C"}]}, {"smiles": "CC1(C)[C@H]2C[C@H](C(=O)O)[C@H](N)[C@@H]1C2", "note": "[Compound 13, (1R,2R,3S,5R)-2-Amino-6,6-Dimethylbicyclo[3.1.1]Heptan-3-Carboxylic Acid]", "values": [{"measurement": "melting point", "result": 270, "unit": "°C"}]}, {"smiles": "CC1(C)[C@@H]2C[C@H](C(=O)O)[C@@H](NC(=O)OCC3c4ccccc4-c4ccccc43)[C@H]1C2", "note": "[Compound 41, (1S,2S,3S,5S)-2-(9H-Fluoren-9-yl-Methoxycarbonylamino)-6,6-Dimethylbicyclo[3.1.1]Heptan-3-Carboxylic Acid]", "values": [{"measurement": "Vrel = effect related to Verapamil", "setting": "P-glycoprotein; Table 3, 4 μg/ml", "result": 0.07}, {"measurement": "R = ratio of fluorescence and activity", "setting": "P-glycoprotein; Table 3, 4 μg/ml", "result": 0.86}, {"measurement": "Vrel = effect related to Verapamil", "setting": "P-glycoprotein; Table 3, 40 μg/ml", "result": 0.11}, {"measurement": "R = ratio of fluorescence and activity", "setting": "P-glycoprotein; Table 3, 40 μg/ml", "result": 1.25}]}, {"smiles": "CCOC(=O)[C@@H]1C[C@H]2C[C@@H]([C@H]1NC(=S)NCCc1ccc(OC)c(OC)c1)C2(C)C", "note": "[Compound 51, (1R,2R,3R,5R)-1-(3-Ethoxycarbonyl-6,6-Dimethylbicyclo[3.1.1]Heptan-2-yl)-3-(3,4-Dimethoxyphenyl-Ethyl)-Thiourea]", "values": [{"measurement": "Multidrug resistance reversing effect (in words)", "setting": "P-glycoprotein; 4 and 40 μg/mL, at higher concentration multiple of fluorescence activity of Verapamil", "result": "significant dose-dependent effect"}, {"measurement": "Vrel = effect related to Verapamil", "setting": "P-glycoprotein; Table 2, 4 μg/ml", "result": 2.70}, {"measurement": "R (activity ratio, fluorescence)", "setting": "P-glycoprotein; Table 2, 4 μg/ml", "result": 13.29}, {"measurement": "Vrel = effect related to Verapamil", "setting": "P-glycoprotein; Table 2, 40 μg/ml", "result": 9.96}, {"measurement": "R (activity ratio, fluorescence)", "setting": "P-glycoprotein; Table 2, 40 μg/ml", "result": 49.02}]}, {"smiles": "CCOC(=O)[C@H](Cc1ccccc1)NC(=O)[C@H]1C[C@H]2C[C@@H]([C@H]1NC(=O)OC(C)(C)C)C2(C)C", "note": "[Compound 17]", "values": [{"measurement": "Vrel = effect related to Verapamil", "setting": "P-glycoprotein; Table 3, 4 μg/ml", "result": 1.58}, {"measurement": "R = ratio of fluorescence and activity", "setting": "P-glycoprotein; Table 3, 4 μg/ml", "result": 23.1}, {"measurement": "Vrel = effect related to Verapamil", "setting": "P-glycoprotein; Table 3, 40 μg/ml", "result": 6.45}, {"measurement": "R = ratio of fluorescence and activity", "setting": "P-glycoprotein; Table 3, 40 μg/ml", "result": 94.24}]}, {"smiles": "COC(=O)N(C1c2ccccc2-c2ccccc21)[C@H]1[C@H](C(=O)O)C[C@H]2C[C@@H]1C2(C)C", "note": "[Compound 30, (1R,2R,3R,5R)-2-(9H-Fluoren-9-yl-Methoxycarbonylamino)-6,6-Dimethylbicyclo[3.1.1]Heptan-3-Carboxylic Acid]", "values": [{"measurement": "melting point", "result": "155 to 157", "unit": "°C"}]}, {"smiles": "CC1(C)[C@H]2C[C@@H](C(=O)O)[C@H](N)[C@@H]1C2", "note": "[Compound 29, (1R,2R,3R,5R)-2-Amino-6,6-Dimethylbicyclo[3.1.1]Heptan-3-Carboxylic Acid]", "values": [{"measurement": "melting point", "result": "250 to 252", "unit": "°C"}]}]}
